Laboratory results: publication PMC6149849, “Cymantrenyl-Nucleobases: Synthesis, Anticancer, Antitrypanosomal and Antimicrobial Activity Studies” (Molecules : A Journal of Synthetic Chemistry and Natural …, 2017)
Read-outs that look alike come from different tables or passages of the source.

Legend:
[1] = system: SKOV-3 (ovarian adenocarcinoma); test: MTT cytotoxicity assay, SKOV-3; assay type: cell-based, human
Procedure: (§4) Anticancer activity of cymantrenes was determined using a panel of human cancer cell lines that were derived from solid tumors. […] The inhibitory effect of cymantrene derivatives on cell proliferation and growth was determined based on survival curves and was expressed as IC50 values (concentration required to achieve a 50% decrease in cell viability when compared to the viability of untreated control cells) calculated using GraphPad Prism 4.02 software for Windows (GraphPad Software, San Diego, CA, USA). Cell viability was determined by the MTT microplate spectrophotometric cytotoxicity test.
(§5) Cells were grown as a monolayer in DMEM growth medium, supplemented with 10% FBS, penicillin (10 U/mL) and streptomycin (50 μg/mL), under standard conditions (37 °C, 5% CO2 and 95% air, 100% humidity) and periodically checked for Mycoplasma contamination.
(§6) The cytotoxicity of cymantrene derivatives was evaluated by the MTT microplate methods as described elsewhere [67] by incubating the cells with increasing concentrations of tested compounds for 24 h. Briefly, 0.1 mL of logarithmically growing cells were seeded in a 96-well microplate (5 × 10^4 cells/well) a day before the experiments and after 24 h of culture, tested compounds, dissolved in DMSO, and diluted in culture medium, were added. […] After further incubation for 24 h, the medium was replaced with fresh medium and the cells were allowed to grow for additional 48 h. Then, the medium was aspirated and 0.05 mL of MTT (final concentration of 5 mg/mL medium) added to each well, and the cells were incubated for further 4 h. The absorbance of the product, resulting from the MTT reduction, was read with a microplate reader at 545 nm. The percentage of viable cells was calculated by comparing the absorbance of treated cells with that of the untreated control cells (taken as 100%). The IC50 concentration of each compound was calculated from the cell survival curves using GraphPad Prism 4.02 software for Windows (GraphPad Software, San Diego, CA, USA).

[2] = system: MCF-7 (hormone-responsive breast adenocarcinoma); test: MTT cytotoxicity assay, MCF-7; assay type: cell-based, human
Procedure: as §4, §5, §6

[3] = system: MDA-MB-231 (triple negative breast adenocarcinoma); test: MTT cytotoxicity assay, MDA-MB-231; assay type: cell-based, human
Procedure: as §4, §5, §6

[4] = system: HepG2 (hepatocellular carcinoma); test: MTT cytotoxicity assay, HepG2; assay type: cell-based, human
Procedure: as §4, §5, §6

U87-MG (glioblastoma) = test: MTT cytotoxicity assay, U87-MG; assay type: cell-based, human
Procedure: as §4, §5, §6

SKOV-3 cells = test: Autophagy (acidic vesicular organelles, AVOs), acridine orange staining; assay type: cell-based, human; details: SKOV-3, IC50 concentrations 24 h, then 0, 24 or 48 h drug-free
Procedure: To determine the mode of cell death that was triggered by cymantrene derivatives, appropriately stained SKOV-3 cells were evaluated for morphological changes using fluorescence microscopy. For evaluation of apoptosis and autophagy, cells were stained with Hoechst 33258/propidium iodide to distinguish between live, apoptotic and necrotic cells and reveal condensed chromatin and apoptotic bodies (a hallmark of apoptosis), and with acridine orange to detect the development of acidic vesicular organelles (AVOs—a hallmark of autophagy).
One day prior to the experiments, cells were seeded at the appropriate density into 35 mm diameter dishes. […] At the end of incubation, the medium was aspirated, the cell monolayer was washed twice with pre-warmed PBS, and fresh medium was added. The cells were cultured in drug-free medium for an additional 24 or 48 h to enable them to recover after the exposure to the compounds and to repair any induced damages.
The ability of tested compounds to induce autophagosome formation inside cells (the process associated with the induction of autophagy) was evaluated by microscopic examination of the morphology of cells stained with acridine orange (AO).

[5] = system: bloodstream forms of T. brucei clone 427-221a; test: Trypanocidal assay, resazurin viability assay; assay type: cell-based, Trypanosoma brucei; details: for GI50: 50% growth inhibition; for MIC and GI50 ratios of cytotoxic to trypanocidal activities: HL-60 / T. brucei; for MIC: concentration at which all cells were killed, determined microscopically; for Selectivity GI50 Ratio / Selectivity MIC Ratio: ratio of cytotoxic (HL-60) to trypanocidal (T. brucei) activity
Procedure: (§1) All of the cultures were maintained at 37 °C in a humidified atmosphere containing 5% of CO2. Toxicity assays were performed, as previously described, with some modifications. In brief, trypanosomes and HL-60 cells were seeded at an initial cell density of 10^4/mL and 5 × 10^4/mL, respectively, in 96-well plates in a final volume of 200 μL culture medium containing various concentrations of test compounds dissolved in 100% DMSO. […] The controls contained DMSO alone. In all of the experiments, the final DMSO concentration was 0.9%. After 24 h incubation, 20 µL of a 0.5 mM resazurin solution prepared in PBS was added and the cultures were incubated for a further 48 h. Resazurin is a vital dye that, when being reduced by living cells, changes its colour from blue to pink. Thus, by measuring absorbance, the proliferation of cells can be easily determined. The change in absorbance was read with a microplate reader using a test wavelength of 570 nm and a reference wavelength of 630 nm. GI50 values were calculated by linear interpolation according to the method described by Huber and Koella. MIC values were determined microscopically.

[6] = system: human myeloid leukemia HL-60 cells; test: General cytotoxicity, resazurin viability assay
Procedure: as §1

[7] = system: S. aureus ATCC 29213 (MSSA); test: Antibacterial liquid microdilution (CLSI M07-A8); assay type: cell-based, Staphylococcus aureus; details: 18 to 24 h
Procedure: (§2) Organometallic compounds play an increasingly important role in the search for new antibacterial agents. We, therefore, thought to investigate also the bactericidal activity of the newly synthesized cymantrenes 1–7, compound C and CymH. The antibacterial activity of the compounds was tested against Gram-positive methicillin-sensitive Staphylococcus aureus (MSSA), methicillin-resistant S. aureus (MRSA), vancomycin-intermediate S. aureus (VISA), S. epidermidis, and Gram-negative Escherichia coli bacterial strains, and expressed as minimal inhibitory concentration (MIC) values (Table 3).
(§3) The antibacterial activity of CymH, 1–7 and C and the reference drugs penicillin G and polymyxin B was tested by the liquid microdilution method under standard conditions using twofold dilution series, as described in the Clinical and Laboratory Standards Institute (CLSI), reference method M07-A8, and expressed as minimal inhibitory concentration (MIC) values. A panel of Gram-positive bacterial strains, S. aureus ATCC® 29213 (sensitive to methicillin, (MSSA)), S. aureus ATCC® 43300 (resistant to methicillin, (MRSA)), S. aureus ATCC 700787™ (intermediate to vancomycin, (VISA)), and S. epidermidis ATCC 12228™, and one Gram-negative, strain E. coli ATCC BAA-198™ (ESBL) were used. In addition, four clinical isolates of S. aureus (MSSA and MRSA) and two clinical isolates of S. epidermidis that were collected from different patients at the Medical University of Warsaw, Poland, were also tested. The bacterial cells were cultivated on tryptic soy agar (TSA) and nutrient agar (NA), according to ATCC recommendations. All of the strains were incubated at 37 °C. Tested compounds were dissolved in DMSO and then serially diluted twofold with cation-adjusted Mueller-Hinton broth (CAMHB). Then, 95 µL of the dilutions were dispensed into microdilution sterile plates (Mar-Four), followed by the addition of 5 µL of bacteria inoculum containing 5 × 10^4 CFU/mL. The final concentrations of the compounds ranged from 512 to 2 µg/mL. Each compound was tested in triplicate, and Penicillin G (8–0.15 µg/mL) and Polymyxin B (256–0.0625 µg/mL) were used as controls. The plates were incubated at 37 °C for 18 to 24 h depending on the bacterial strain. Thereafter, the absorbance was measured at λ = 540 nm and λ = 595 nm using a Spectrostar Omega microplate reader (BMG Labtech, Offenburg, Germany). The MIC value was defined as the lowest concentration of a compound that reduced the growth by 100%.

[8] = system: S. aureus ATCC 43300 (MRSA); test: Antibacterial liquid microdilution (CLSI M07-A8); assay type: cell-based, Staphylococcus aureus; details: 18 to 24 h
Procedure: as §2, §3

[9] = system: S. aureus ATCC 700787 (VISA); test: Antibacterial liquid microdilution (CLSI M07-A8); assay type: cell-based, Staphylococcus aureus; details: 18 to 24 h
Procedure: as §2, §3

[10] = system: S. epidermidis ATCC 12228; test: Antibacterial liquid microdilution (CLSI M07-A8); assay type: cell-based, Staphylococcus epidermidis; details: 18 to 24 h
Procedure: as §2, §3

[11] = system: E. coli ATCC BAA-198 (ESBL); test: Antibacterial liquid microdilution (CLSI M07-A8); assay type: cell-based, Escherichia coli; details: 18 to 24 h
Procedure: as §2, §3

[12] = 24 h incubation, MTT, means ± SEM, read-out: cytotoxicity IC50, SKOV-3
[13] = 24 h incubation, MTT, means ± SEM, read-out: cytotoxicity IC50, MCF-7
[14] = 24 h incubation, MTT, means ± SEM, read-out: cytotoxicity IC50, MDA-MB-231
[15] = 24 h incubation, MTT, means ± SEM, read-out: cytotoxicity IC50, HepG2
[16] = 24 h incubation, MTT, means ± SEM, read-out: cytotoxicity IC50, U87-MG
[17] = concentration at which all cells were killed
[18] = read-out: HL-60 GI50, 50% growth inhibition

Compound	IC50 [1, 12] [µM]	IC50 [2, 13] [µM]	IC50 [3, 14] [µM]	IC50 [4, 15] [µM]	IC50 (U87-MG (glioblastoma); [16]) [µM]	induction of autophagy (cells containing AVOs) (SKOV-3 cells)	GI50 [5] [µM]	MIC [5] [µM]	Selectivity GI50 Ratio [5]	Selectivity MIC Ratio [5]	MIC, S. aureus ATCC 29213 (MSSA) [7] [µg/mL]	MIC, S. aureus ATCC 43300 (MRSA) [8] [µg/mL]	MIC, S. aureus ATCC 700787 (VISA) [9] [µg/mL]	MIC, S. epidermidis ATCC 12228 [10] [µg/mL]	MIC, E. coli ATCC BAA-198 [11] [µg/mL]	IC50 [1] [µM]	IC50 [2] [µM]	IC50 [3] [µM]	IC50 [4] [µM]	IC50 (U87-MG (glioblastoma)) [µM]	further results
O=c1[nH]c(=O)n(CCC(O)[C]23[CH]4[CH]5[CH]6[CH]2[Mn]5643[P](c2ccccc2)(c2ccccc2)c2ccccc2)cc1F.[C-]#[O+].[C-]#[O+] (racemic) [Compound 3]	53 ± 2.65	57.8 ± 2.89	35.7 ± 1.44	65.8 ± 3.29	24.9 ± 1.24	very little autophagic activity	4.27 ± 0.13	10	7.2	10	>256	>256	>256	>256	>256	–	–	–	–	–	MIC and GI50 ratios of cytotoxic to trypanocidal activities [5]: 7–13; HL-60 MIC [6, 17]: 100 µM; GI50 [6, 18]: 30.6 ± 2.6 µM
COC(CCn1cc(F)c(=O)n(C)c1=O)[C]12[CH]3[CH]4[CH]5[CH]1[Mn]4532.[C-]#[O+].[C-]#[O+].[C-]#[O+] (racemic) [Compound 4]	–	–	–	–	–	Less induction of autophagy	29.6 ± 6.8	100	>3.4	>1	>512	>512	>512	>512	>512	> 150	> 150	> 150	> 150	> 150	GI50 [6]: > 100 µM; HL-60 MIC [6]: >100 µM
Nc1ncnc2c1ncn2CCC(O)[C]12[CH]3[CH]4[CH]5[CH]1[Mn]4532[P](c1ccccc1)(c1ccccc1)c1ccccc1.[C-]#[O+].[C-]#[O+] (racemic) [Compound 5]	63.8 ± 3.19	102 ± 1.11	56 ± 2.07	106 ± 2.31	54.2 ± 2.71	Less induction of autophagy	3.14 ± 0.31	10	9.1	10	>256	>256	>256	>256	>256	–	–	–	–	–	MIC and GI50 ratios of cytotoxic to trypanocidal activities [5]: 7–13; HL-60 MIC [6, 17]: 100 µM; GI50 [6, 18]: 28.7 ± 3 µM
COC(CCn1cnc2c(N(C)C)ncnc21)[C]12[CH]3[CH]4[CH]5[CH]1[Mn]4532.[C-]#[O+].[C-]#[O+].[C-]#[O+] (racemic) [Compound 6]	–	–	–	–	–	greatest autophagic changes	26.1 ± 1.9	100	3.6	>1	>512	>512	>512	>512	>512	77.1 ± 3.86	111 ± 3.57	> 150	86.9 ± 2.34	131 ± 3.53	GI50 [6]: 95.2 ± 44.4 µM; HL-60 MIC [6]: >100 µM
Nc1ncnc2c1ncn2CCC(O)[C]12[CH]3[CH]4[CH]5[CH]1[Mn]45321[P](c2ccccc2)(c2ccccc2)CC[P]1(c1ccccc1)c1ccccc1.[C-]#[O+] (racemic) [Compound C]	–	–	–	–	–	greatest autophagic changes	–	–	–	–	32	32	32	16	>128	–	104 ± 1.19	43.1 ± 1.95	66.6 ± 3.33	38.3 ± 1.91	–
CCC(=O)[C]12[CH]3[CH]4[CH]5[CH]1[Mn]4532.[C-]#[O+].[C-]#[O+].[C-]#[O+] (stereo not shown) [Compound 7, propionylocymantrene]	–	–	–	–	–	greatest autophagic changes	–	–	–	–	>512	>512	>512	>512	>512	69.8 ± 3.49	> 150	63 ± 1.32	110 ± 2.48	83.6 ± 1.18	–
